Measurements taken from ChEMBL document CHEMBL2429821, “A Casein kinase 1/Checkpoint kinase 1 pyrazolo-pyridine protein kinase inhibitor as novel activator of the p53 pathway” (Bioorg Med Chem Lett, 2013).

Key:
[1] = target: T1, Protein kinase C zeta type (Homo sapiens) (UniProt Q05513); experiment: Inhibition of human PKCzeta assessed as residual activity at 10 uM relative to control
T1 sequence (whole entry): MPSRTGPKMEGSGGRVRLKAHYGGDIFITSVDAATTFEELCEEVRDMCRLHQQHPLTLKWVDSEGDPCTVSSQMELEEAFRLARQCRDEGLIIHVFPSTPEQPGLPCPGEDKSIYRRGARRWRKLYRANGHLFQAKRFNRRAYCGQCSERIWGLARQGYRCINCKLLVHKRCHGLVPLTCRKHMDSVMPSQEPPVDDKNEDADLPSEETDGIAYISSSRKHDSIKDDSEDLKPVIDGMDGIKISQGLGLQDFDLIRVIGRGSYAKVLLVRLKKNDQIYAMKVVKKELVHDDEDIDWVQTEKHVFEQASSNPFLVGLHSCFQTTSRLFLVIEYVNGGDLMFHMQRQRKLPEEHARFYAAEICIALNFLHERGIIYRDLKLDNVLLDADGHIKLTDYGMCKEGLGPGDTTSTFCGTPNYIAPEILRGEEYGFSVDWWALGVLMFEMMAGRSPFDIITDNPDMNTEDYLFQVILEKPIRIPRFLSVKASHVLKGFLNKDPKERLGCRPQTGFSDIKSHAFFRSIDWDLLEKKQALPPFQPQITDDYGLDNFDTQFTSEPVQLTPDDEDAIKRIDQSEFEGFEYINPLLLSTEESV

[2] = target: Tyrosine-protein kinase BTK (Homo sapiens) (UniProt Q06187); experiment: Inhibition of human BTK assessed as residual activity at 1 uM relative to control
[3] = target: Ribosomal protein S6 kinase alpha-3 (Homo sapiens) (UniProt P51812); experiment: Inhibition of human RSK2 assessed as residual activity at 1 uM relative to control
[4] = target: Serine/threonine-protein kinase N2 (Homo sapiens) (UniProt Q16513); experiment: Inhibition of human PRK2 assessed as residual activity at 10 uM relative to control
[5] = target: Ribosomal protein S6 kinase beta-1 (Homo sapiens) (UniProt P23443); experiment: Inhibition of human S6K1 assessed as residual activity at 10 uM relative to control
[6] = target: T2, Serine/threonine-protein kinase Sgk1 (Homo sapiens) (UniProt O00141); experiment: Inhibition of human SGK1 assessed as residual activity at 1 uM relative to control
T2 sequence (whole entry): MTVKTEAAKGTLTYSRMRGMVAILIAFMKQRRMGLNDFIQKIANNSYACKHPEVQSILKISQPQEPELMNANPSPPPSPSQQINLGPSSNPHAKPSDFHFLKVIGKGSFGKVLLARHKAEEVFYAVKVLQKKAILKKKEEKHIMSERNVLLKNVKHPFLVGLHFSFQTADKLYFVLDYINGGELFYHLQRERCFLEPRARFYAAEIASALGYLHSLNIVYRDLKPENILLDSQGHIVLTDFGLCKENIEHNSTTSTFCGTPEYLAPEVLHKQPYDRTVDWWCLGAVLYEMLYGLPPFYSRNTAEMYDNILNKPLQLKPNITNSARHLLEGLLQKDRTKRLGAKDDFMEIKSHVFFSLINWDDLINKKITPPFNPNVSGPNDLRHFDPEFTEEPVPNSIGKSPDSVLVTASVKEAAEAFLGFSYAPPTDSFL

[7] = target: MAP kinase-interacting serine/threonine-protein kinase 1 (Homo sapiens) (UniProt Q9BUB5); experiment: Inhibition of human MNK1 assessed as residual activity at 10 uM relative to control
[8] = target: Ribosomal protein S6 kinase beta-1 (Homo sapiens) (UniProt P23443); experiment: Inhibition of human S6K1 assessed as residual activity at 1 uM relative to control
Oryctolagus cuniculus = species: Oryctolagus cuniculus; experiment: Inhibition of rabbit MKK1 assessed as residual activity at 1 uM relative to control
[9] = target: Cyclin-dependent kinase 2 (Homo sapiens) (UniProt P24941); experiment: Inhibition of human CDK2 assessed as residual activity at 1 uM relative to control
[10] = target: T3, Serine/threonine-protein kinase D1 (Homo sapiens) (UniProt Q15139); experiment: Inhibition of human PKD1 assessed as residual activity at 1 uM relative to control
T3 sequence (whole entry): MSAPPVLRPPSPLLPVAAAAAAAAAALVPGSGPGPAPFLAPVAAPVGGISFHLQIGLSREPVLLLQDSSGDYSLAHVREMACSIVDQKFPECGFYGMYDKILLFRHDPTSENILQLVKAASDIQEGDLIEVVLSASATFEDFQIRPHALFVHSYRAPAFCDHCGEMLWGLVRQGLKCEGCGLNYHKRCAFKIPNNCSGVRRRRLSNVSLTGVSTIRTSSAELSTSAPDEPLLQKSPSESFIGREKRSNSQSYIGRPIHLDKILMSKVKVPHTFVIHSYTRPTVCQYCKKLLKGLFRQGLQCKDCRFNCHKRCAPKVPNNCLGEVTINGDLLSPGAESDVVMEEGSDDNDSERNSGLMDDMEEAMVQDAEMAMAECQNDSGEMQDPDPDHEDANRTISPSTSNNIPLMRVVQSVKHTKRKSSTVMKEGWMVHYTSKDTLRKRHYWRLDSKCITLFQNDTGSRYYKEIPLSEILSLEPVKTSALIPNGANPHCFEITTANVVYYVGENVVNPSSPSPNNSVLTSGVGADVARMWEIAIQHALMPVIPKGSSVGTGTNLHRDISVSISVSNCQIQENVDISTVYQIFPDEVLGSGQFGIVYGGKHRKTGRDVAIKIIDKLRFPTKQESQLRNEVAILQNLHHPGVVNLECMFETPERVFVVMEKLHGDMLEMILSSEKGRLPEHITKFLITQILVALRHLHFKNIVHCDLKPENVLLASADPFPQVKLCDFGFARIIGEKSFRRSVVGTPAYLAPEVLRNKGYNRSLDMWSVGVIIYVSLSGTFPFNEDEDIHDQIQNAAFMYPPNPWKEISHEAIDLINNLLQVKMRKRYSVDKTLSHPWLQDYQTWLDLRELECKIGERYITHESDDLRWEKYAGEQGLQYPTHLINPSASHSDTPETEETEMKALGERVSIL

[11] = target: Aurora kinase B (Homo sapiens) (UniProt Q96GD4); experiment: Inhibition of human Aurora-B assessed as residual activity at 1 uM relative to control
[12] = target: MAP/microtubule affinity-regulating kinase 3 (Homo sapiens) (UniProt P27448); experiment: Inhibition of human MARK3 assessed as residual activity at 10 uM relative to control
[13] = target: Casein kinase I isoform delta (Rattus norvegicus) (UniProt Q06486); experiment: Inhibition of rat CK1delta assessed as residual activity at 10 uM relative to control
Chain of Casein kinase I isoform delta (Rattus norvegicus) (Q06486 whole entry, looked up, canonical isoform): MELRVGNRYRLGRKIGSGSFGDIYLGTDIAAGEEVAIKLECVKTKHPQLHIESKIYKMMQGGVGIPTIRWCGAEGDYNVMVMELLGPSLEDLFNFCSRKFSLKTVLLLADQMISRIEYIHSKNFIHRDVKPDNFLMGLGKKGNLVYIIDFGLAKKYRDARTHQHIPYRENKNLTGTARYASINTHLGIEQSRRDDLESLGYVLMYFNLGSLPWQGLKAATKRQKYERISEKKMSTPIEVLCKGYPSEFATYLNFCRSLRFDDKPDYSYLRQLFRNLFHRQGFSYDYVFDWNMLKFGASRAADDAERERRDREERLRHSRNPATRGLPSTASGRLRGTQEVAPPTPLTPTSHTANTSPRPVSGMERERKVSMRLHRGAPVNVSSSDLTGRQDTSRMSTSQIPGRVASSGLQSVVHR

Chain of Serine/threonine-protein kinase N2 (Homo sapiens) (Q16513 whole entry, looked up): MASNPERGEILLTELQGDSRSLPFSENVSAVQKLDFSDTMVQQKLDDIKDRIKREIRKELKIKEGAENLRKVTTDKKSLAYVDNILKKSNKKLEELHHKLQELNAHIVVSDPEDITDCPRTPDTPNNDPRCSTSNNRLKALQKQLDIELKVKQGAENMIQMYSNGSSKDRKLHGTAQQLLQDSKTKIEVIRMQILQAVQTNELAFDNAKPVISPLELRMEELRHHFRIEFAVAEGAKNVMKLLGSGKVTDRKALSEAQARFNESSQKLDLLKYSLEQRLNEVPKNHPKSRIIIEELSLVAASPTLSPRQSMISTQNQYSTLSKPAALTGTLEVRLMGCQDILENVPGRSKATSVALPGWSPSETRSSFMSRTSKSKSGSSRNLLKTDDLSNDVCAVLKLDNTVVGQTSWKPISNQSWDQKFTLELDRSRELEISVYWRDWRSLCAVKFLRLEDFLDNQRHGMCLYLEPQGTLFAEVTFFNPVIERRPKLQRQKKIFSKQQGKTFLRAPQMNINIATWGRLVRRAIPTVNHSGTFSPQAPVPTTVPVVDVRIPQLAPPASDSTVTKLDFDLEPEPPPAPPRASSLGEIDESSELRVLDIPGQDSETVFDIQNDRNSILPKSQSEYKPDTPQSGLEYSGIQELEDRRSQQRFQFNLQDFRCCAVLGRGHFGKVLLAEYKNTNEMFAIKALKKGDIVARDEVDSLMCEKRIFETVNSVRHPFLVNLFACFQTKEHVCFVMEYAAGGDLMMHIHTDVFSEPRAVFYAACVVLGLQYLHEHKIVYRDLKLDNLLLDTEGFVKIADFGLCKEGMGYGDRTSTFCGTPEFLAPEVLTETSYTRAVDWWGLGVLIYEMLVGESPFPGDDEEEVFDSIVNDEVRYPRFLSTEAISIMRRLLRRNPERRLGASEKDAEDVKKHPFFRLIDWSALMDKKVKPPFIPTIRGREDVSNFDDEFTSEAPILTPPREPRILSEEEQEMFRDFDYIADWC
Chain of MAP/microtubule affinity-regulating kinase 3 (Homo sapiens) (P27448 whole entry, looked up, canonical isoform): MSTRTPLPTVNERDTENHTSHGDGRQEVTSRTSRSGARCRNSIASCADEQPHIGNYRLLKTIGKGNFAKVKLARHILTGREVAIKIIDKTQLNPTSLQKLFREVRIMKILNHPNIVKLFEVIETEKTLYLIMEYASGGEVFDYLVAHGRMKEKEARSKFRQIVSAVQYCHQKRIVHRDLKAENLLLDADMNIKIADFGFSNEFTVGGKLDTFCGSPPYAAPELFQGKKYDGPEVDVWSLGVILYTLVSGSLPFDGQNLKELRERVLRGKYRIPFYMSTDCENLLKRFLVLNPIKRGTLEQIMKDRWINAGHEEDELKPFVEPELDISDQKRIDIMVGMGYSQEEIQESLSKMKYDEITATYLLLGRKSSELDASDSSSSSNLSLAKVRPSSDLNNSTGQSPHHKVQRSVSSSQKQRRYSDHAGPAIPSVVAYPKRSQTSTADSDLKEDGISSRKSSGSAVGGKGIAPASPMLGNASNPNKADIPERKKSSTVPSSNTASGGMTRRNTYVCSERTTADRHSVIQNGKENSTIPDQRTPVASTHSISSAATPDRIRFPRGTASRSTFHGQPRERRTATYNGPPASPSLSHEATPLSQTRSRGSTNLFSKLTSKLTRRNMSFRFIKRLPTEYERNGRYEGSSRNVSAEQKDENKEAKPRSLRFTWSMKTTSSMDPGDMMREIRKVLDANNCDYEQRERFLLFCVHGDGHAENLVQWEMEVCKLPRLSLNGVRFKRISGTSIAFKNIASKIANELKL
Chain of Aurora kinase B (Homo sapiens) (Q96GD4 whole entry): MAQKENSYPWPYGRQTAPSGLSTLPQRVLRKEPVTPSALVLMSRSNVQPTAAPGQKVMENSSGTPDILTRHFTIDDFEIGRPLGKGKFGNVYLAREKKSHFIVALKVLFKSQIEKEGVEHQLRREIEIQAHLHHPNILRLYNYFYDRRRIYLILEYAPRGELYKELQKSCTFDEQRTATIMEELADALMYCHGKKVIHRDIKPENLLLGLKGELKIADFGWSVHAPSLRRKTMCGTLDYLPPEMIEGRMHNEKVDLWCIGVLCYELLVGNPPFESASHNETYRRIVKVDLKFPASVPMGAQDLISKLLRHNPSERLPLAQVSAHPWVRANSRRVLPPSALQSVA
Chain of Tyrosine-protein kinase BTK (Homo sapiens) (Q06187 whole entry): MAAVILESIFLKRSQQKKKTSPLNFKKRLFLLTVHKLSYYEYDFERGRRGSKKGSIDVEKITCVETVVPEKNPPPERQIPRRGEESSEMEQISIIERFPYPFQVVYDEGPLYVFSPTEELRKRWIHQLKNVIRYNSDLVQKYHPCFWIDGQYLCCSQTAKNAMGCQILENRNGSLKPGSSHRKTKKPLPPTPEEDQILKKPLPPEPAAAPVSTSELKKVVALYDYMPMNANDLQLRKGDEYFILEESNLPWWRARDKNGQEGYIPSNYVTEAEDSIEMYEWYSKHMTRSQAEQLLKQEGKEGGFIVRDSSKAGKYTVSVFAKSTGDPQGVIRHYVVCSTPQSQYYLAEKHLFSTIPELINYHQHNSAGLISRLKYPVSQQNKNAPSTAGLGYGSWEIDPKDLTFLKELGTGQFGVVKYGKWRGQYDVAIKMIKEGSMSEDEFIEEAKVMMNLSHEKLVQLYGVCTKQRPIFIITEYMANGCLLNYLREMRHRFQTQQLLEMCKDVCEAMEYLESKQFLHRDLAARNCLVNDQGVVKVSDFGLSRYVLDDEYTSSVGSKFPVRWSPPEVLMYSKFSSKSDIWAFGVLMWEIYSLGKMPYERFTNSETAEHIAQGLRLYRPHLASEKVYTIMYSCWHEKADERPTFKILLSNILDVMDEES
Chain of Ribosomal protein S6 kinase alpha-3 (Homo sapiens) (P51812 whole entry): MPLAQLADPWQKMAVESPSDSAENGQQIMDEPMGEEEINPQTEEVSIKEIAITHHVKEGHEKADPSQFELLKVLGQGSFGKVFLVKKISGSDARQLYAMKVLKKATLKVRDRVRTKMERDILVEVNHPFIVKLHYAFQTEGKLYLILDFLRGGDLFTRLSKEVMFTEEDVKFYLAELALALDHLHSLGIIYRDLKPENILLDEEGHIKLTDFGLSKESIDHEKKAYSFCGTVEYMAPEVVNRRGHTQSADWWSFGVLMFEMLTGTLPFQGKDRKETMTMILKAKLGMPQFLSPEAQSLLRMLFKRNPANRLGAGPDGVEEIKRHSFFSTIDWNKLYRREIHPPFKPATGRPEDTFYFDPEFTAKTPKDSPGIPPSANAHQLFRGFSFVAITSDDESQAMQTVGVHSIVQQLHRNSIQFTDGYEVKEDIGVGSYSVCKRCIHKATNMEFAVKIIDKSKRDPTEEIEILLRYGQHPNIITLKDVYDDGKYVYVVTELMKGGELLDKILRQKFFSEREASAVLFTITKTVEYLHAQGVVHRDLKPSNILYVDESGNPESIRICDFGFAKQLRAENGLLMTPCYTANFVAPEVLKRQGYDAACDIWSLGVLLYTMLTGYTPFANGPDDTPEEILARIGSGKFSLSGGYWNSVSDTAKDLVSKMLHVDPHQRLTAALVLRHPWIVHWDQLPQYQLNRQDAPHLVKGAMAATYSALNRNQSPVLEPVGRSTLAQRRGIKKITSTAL
Chain of MAP kinase-interacting serine/threonine-protein kinase 1 (Homo sapiens) (Q9BUB5 whole entry, looked up): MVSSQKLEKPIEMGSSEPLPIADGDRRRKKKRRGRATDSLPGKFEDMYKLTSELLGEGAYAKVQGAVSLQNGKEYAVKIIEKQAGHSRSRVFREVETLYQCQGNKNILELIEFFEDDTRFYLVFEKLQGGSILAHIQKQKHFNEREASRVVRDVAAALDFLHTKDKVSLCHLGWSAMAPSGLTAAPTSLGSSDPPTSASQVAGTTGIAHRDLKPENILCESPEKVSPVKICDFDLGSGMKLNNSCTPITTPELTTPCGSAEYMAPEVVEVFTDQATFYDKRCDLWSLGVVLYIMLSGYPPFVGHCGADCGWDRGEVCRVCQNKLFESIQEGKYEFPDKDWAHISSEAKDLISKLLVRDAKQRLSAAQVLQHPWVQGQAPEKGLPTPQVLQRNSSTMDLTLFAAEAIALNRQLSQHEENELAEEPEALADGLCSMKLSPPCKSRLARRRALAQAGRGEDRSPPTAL
Chain of Ribosomal protein S6 kinase beta-1 (Homo sapiens) (P23443 whole entry, looked up): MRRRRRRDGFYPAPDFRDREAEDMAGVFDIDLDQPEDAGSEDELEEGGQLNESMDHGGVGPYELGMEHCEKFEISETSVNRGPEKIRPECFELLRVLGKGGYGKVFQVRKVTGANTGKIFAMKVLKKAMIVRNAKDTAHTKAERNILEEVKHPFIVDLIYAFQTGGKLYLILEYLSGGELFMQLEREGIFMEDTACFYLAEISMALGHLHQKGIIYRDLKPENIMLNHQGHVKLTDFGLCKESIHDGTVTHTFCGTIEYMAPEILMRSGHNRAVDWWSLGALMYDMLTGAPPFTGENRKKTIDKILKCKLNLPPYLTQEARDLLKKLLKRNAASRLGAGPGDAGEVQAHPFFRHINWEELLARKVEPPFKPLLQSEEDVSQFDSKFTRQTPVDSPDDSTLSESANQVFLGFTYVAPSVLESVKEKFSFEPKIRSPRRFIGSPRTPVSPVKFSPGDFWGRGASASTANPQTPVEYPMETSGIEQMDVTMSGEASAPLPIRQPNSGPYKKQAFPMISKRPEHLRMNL

Activity [1] [%] | Activity [2] [%] | Activity [3] [%] | Activity [4] [%] | Activity [5] [%] | Activity [6] [%] | Activity [7] [%] | Activity [8] [%] | Activity (Oryctolagus cuniculus) [%] | Activity [9] [%] | Activity [10] [%] | Activity [11] [%] | Activity [12] [%] | Activity [13] [%] | SMILES
77 | 85 | 92 | 76 | 88 | 108 | 91 | 85 | 90 | 9 | 76 | 102 | 62 | 84 | CCCC(=O)Nc1n[nH]c2ncc(-c3cccnc3)cc12
82 | 103 | 78.7 | 96.5 | 99.9 | 57.5 | 102 | 108 | 95.1 | 92.2 | 80.7 | 93.5 | 79.2 | 7.2 | CC(=O)Nc1nccc(-c2c(-c3ccccc3)noc2C)n1
84.2 | 93.2 | 93.8 | 42.2 | 69.8 | 105 | 19.3 | 90.6 | 75.7 | 76.7 | 108 | 77.2 | 17.9 | 10 | CC(=O)Nc1cccc(-c2cnc3[nH]nc(C)c3c2)c1
